According to the NIST ThermoML archive (doi:10.1016/j.tca.2007.05.009):
Several values for one entry are separate records, joined by “and”; a condition that tells them apart may be missing. Equal entries are not always repeated.

Settings: Crystal

CC/N=C(/N)S [ethylthiourea]
Settings | vapor or sublimation pressure
356.5 K, Calculated from knudsen effusion weight loss | 0.000282 kPa
357 K, Calculated from knudsen effusion weight loss | 0.000309 kPa
360 K, Torsion effusion method | 0.000331 kPa
360.5 K, Calculated from knudsen effusion weight loss | 0.000417 kPa
361 K, Torsion effusion method | 0.000437 kPa
362 K, Calculated from knudsen effusion weight loss | 0.00049 kPa
363 K, Torsion effusion method | 0.000447 kPa
364 K, Torsion effusion method | 0.00055 kPa
365 K, Torsion effusion method | 0.000661 kPa
366 K, Torsion effusion method | 0.000631 kPa
366.5 K, Torsion effusion method | 0.000813 kPa
367 K, Torsion effusion method | 0.000741 kPa
367.5 K, Calculated from knudsen effusion weight loss | 0.000912 kPa
368 K, Torsion effusion method | 0.000912 kPa and 0.000646 kPa
368.5 K, Torsion effusion method | 0.000794 kPa
369 K, Torsion effusion method | 0.000891 kPa
369.5 K, Torsion effusion method | 0.001175 kPa
370 K, Torsion effusion method | 0.001047 kPa and 0.000871 kPa
370.5 K, Torsion effusion method | 0.001175 kPa
371 K, Torsion effusion method | 0.001047 kPa and 0.001288 kPa and 0.001096 kPa
372 K, Torsion effusion method | 0.000977 kPa
373 K, Torsion effusion method | 0.001288 kPa
374 K, Torsion effusion method | 0.00138 kPa and 0.001738 kPa
374.5 K, Torsion effusion method | 0.001349 kPa
375 K, Torsion effusion method | 0.001862 kPa [middle of 4 runs]
376 K, Torsion effusion method | 0.001778 kPa [middle of 4 runs]
377 K, Torsion effusion method | 0.001905 kPa and 0.001698 kPa
378 K, Torsion effusion method | 0.002239 kPa [middle of 4 runs]
379 K, Torsion effusion method | 0.002692 kPa and 0.002884 kPa
379.5 K, Torsion effusion method | 0.00263 kPa
380 K, Torsion effusion method | 0.002951 kPa and 0.002188 kPa
380.5 K, Torsion effusion method | 0.002291 kPa
